Laboratory results reported in PMC9680484, “Synthesis, Biophysical Interaction of DNA/BSA, Equilibrium and Stopped-Flow Kinetic Studies, and Biological Evaluation of bis(2-Picolyl)amine-Based Nickel(II) Complex” (Biomimetics, 2022).
Where “and” joins values, the source holds several entries; their conditions need not be identical. Equal entries are not always repeated. Where two headings read alike, the source gives them in different places.

Assays:
[1] = biological target: T1, BSA (Bos taurus, UniProt P02769); assay: BSA UV-vis absorption titration (Benesi-Hildebrand binding constant); set-up: species or system bovine; conditions: BSA UV absorption
Experimental: Interactions between the most common blood protein, serum albumin, and complexes have sparked a lot of interest recently because of their structural similarity to human serum albumin. To better understand the mechanism of interaction between BPA and its nickel(II) complex NiBPA with BSA, fluorescence quenching studies were carried out. BSA’s fluorescence is due to intrinsic protein characteristics, such as the presence of tryptophan and tyrosine residues. Variations in the emission spectra caused by protein conformational changes, subunit interaction, substrate binding, or denaturation are largely attributed to the tryptophan residue. As a result, BSA fluorescence behavior can provide valuable insight into protein structure, dynamics, and folding. Fluorescence titration experiments were performed at room temperature with BSA and different concentrations of BPA and NiBPA in the range 200–600 nm (λex. 280 nm). A slight red shift (40 percent, BPA; 65 percent, NiBPA; Figure 3) reduced the intensity of BSA fluorescence at 343 nm. The presence of the protein’s active site in a hydrophobic environment causes the redshift. […] The quenching mechanism can be set to either static or dynamic operation. […] The binding constants for BPA and NiBPA were calculated using Equation (1) and found to be 0.4 × 10^4 M^−1 and 0.82 × 10^4 M^−1, respectively (Table 1). […]

[2] = system: human liver cancer (HepG2) cell lines; assay: MTT cytotoxicity assay, liver cancer cells; format: cell-based; conditions: HepG2, MTT, 24 h
Experimental: Methyl thiazolyl tetrazolium (MTT) colorimetry [47] was used to assess the cytotoxicity of BPA and one for human liver cancer (HepG2) cell lines. MTT can be converted into formazan by living cells with an active metabolism, but this ability is lost in dying cells. Therefore, in this study, the MTT assay was used to determine how many viable cells there were. Before the investigated compounds were added, cells were cultured in 96-well flat-bottomed microtiter plates at a density of 1 × 10^4 cells/well (100 l/well) for 70 to 80 percent confluent cultures, and the cultures were then incubated at 37 °C and 5 percent CO2 for 24 h. The compounds were used in a range of concentrations (31.2, 62.5, 125.0, 250.0, 500.0, and 1000.0 g/mL), and the cells were cultured for 24 h. Then, 10 µl of the 12 mM MTT stock solution (5 mg/mL MTT in sterile PBS) was added to each well at the conclusion of the incubation period. After that, the plate was incubated at 37 °C for 4 h. […] On an ELISA reader, the absorbance at 570 nm was read (StatFax-2100, Awareness Technology, Inc., USA). The percentage of cells inhibited was calculated using: % CellInhibition=100−T−T0/C−T0 where T is the optical density of the test sample, To is the optical density at time zero, and C is the optical density of the control.

[3] = system: E. faecalis; assay: Antibacterial MIC/MBC, E. faecalis; format: cell-based; set-up: MIC: unit not given here; conditions: Gram-positive
[4] = system: ct-DNA; assay: Stopped-flow kinetics of ct-DNA binding
Experimental: (§1) The kinetics of protein and DNA binding was measured using an Applied KinetAsyst SF-61DX2 stopped-flow instrument. At 25 °C, equal volumes of compounds against protein and DNA solutions were rapidly mixed in the stopped-flow instrument. The binding reactions were studied using a 10-fold excess of the ligand BPA and NiBPA under pseudo-first-order conditions. For each experimental condition, all recorded rate constants were taken into account, from which the mean values of at least three independent kinetic runs were calculated.
(§2) Because many medicines with lower cellular toxicity have a slow DNA dissociation rate, several factors, such as the strength of binding and the drug’s affinity for DNA, as well as the kinetic stability of DNA-drug adducts, may contribute to antitumor effectiveness. The stopped-flow technique was used to study in-vitro protein/DNA binding to BPA and propose a mechanism in order to obtain such information. The kinetic traces were recorded at 265 nm within 100 s (BPA) and 5 s (NiBPA), respectively, to capture the interaction process with BSA. […] In the case of ct-DNA interaction, the kinetic traces were recorded at 290 nm, and both BPA and NiBPA followed a similar pattern since kinetic traces for BPA and NiBPA were collected within 100 s, covering the entire interaction process. […] Over the concentration range of BPA and NiBPA, the study of kinetic traces performed under pseudo-first-order conditions may be fitted to two kinetic phases (Figure 7) evaluated using the following Equation (3):(3) A=a1e^−kobs1t1+a2e^−kobs2t2+A0
The interaction process involves at least two steps, and the stopped-flow records the two kinetic phases as a fast binding (rate constant kobs1) followed by a slow first-order isomerization process (rate constant kobs2). […] Both kon and koff were used to calculate the equilibrium association constants Kaff [kon/koff M^−1] and the equilibrium dissociation constants Kd [koff/kon M]. […]

[5] = system: ct-DNA; assay: ct-DNA electronic absorption titration; format: binding; conditions: phosphate buffer pH 7.2
Experimental: Electronic absorption measurements were performed with a constant concentration of ctDNA and increasing concentrations of BPA and NiBPA (Na-phosphate buffer solution, pH 7.2). […] Intrinsic fluorescence was measured with the ct-DNA solution at the excitation wavelength (ex, 330), and emission spectra were recorded at 550–700 nm after aliquot addition of BPA and NiBPA.
Absorption titration information was depicted in Figure 6 to understand the mode of interaction of complexes with ct-DNA. Increased addition of a solution of BPA to a solution of ct-DNA causes hyperchromic for the band at 264 nm with a blue shift of 5 nm (259 nm), as shown in the absorption titration spectrum (Figure 6). The band at 278 nm, on the other hand, was hypochromic with a small blue shift of 2 nm (276 nm). The presence of […] in the medium was indicated by the isosbestic point in the titration curve at 274 nm. […] The hydrogen bonds formed with the –OH and SH groups of BPA and NiBPA are caused by the presence of many accessible hydrogen binding sites in the DNA major and minor grooves. The binding constants for BPA (0.16 × 10^5 M^−1) and NiBPA (0.52 × 10^5 M^−1) are similar to those of well-known groove binding rather than classical intercalation, implying that NiBPA interacts with ct-DNA much more strongly than BPA under investigation.

[6] = MTT cytotoxicity assay, normal cells; format: cell-based; conditions: normal liver (Wi38) cells, MTT, 24 h
[7] = system: E. coli; assay: Antibacterial MIC/MBC, E. coli; format: cell-based; conditions: Gram-negative
Experimental: (§3) Several studies have shown that organic compound coordination with a metallic element results in significant changes in the biological activity of both the organic ligand and the metal. As a result, BPA and its nickel complex NiBPA were tested in vitro for antibacterial activity against Gram-positive (S. aureus and S epidermidis) and Gram-negative (P. mirabilis and E. coli) bacteria. Figure 10 depicts the antibacterial function of BPA and NiBPA as the diameter of the growth-inhibition region in millimeters. […] The MBC is identified by determining the lowest concentration of antibacterial agents that reduces the viability of the initial bacterial inoculum by 99.9%. The MIC or MBC strain was chosen based on the value agreed upon on two or more occasions. The antibiotic tobramycin (TOB) was used to control the situation. The inhibition zone, as well as the MIC and MBC data, leads to the following conclusions. […] This is explained by the metal ion’s polarity and cationic charge, as NiBPA has a cationic property with two positive charges. […] The interaction between Gram-negative bacteria and NiBPA was stronger than that of Gram-positive bacteria due to the higher negative charge on the cell surface, despite the presence of an outer membrane in Gram-negative bacteria (see Figure 11).

[8] = system: S. aureus; assay: Antibacterial MIC/MBC, S. aureus; format: cell-based; conditions: Gram-positive
Experimental: as §3

[9] = biological target: T1, BSA; assay: Stopped-flow kinetics of BSA binding; set-up: species or system bovine; conditions: BSA
Experimental: as §1, §2
The interaction process involves at least two steps, and the stopped-flow records the two kinetic phases as a fast binding (rate constant kobs1) followed by a slow first-order isomerization process (rate constant kobs2). […] Both kon and koff were used to calculate the equilibrium association constants Kaff [kon/koff M^−1] and the equilibrium dissociation constants Kd [koff/kon M].
The difference between the free energy, G, of BSA molecules alone in the solution and when bound together is related to the equilibrium dissociation constant, Kd1. Equation (4) gives the binding free energy change Gbind. (4) ΔGbind=RT·ln(Kd)

[10] = biological target: T1, BSA; assay: BSA fluorescence quenching titration (Stern-Volmer / Scatchard); format: binding, bovine; conditions: for KSV: Stern-Volmer constant
Experimental: The excitation and emission wavelengths of BSA at 280 nm were monitored in protein binding studies using BSA ([…]) solution prepared in Tris-HCl buffer (pH 7.5), and the solution was stored in a dark place at 4 °C.
Interactions between the most common blood protein, serum albumin, and complexes have sparked a lot of interest recently because of their structural similarity to human serum albumin. To better understand the mechanism of interaction between BPA and its nickel(II) complex NiBPA with BSA, fluorescence quenching studies were carried out. BSA’s fluorescence is due to intrinsic protein characteristics, such as the presence of tryptophan and tyrosine residues. Variations in the emission spectra caused by protein conformational changes, subunit interaction, substrate binding, or denaturation are largely attributed to the tryptophan residue. As a result, BSA fluorescence behavior can provide valuable insight into protein structure, dynamics, and folding. Fluorescence titration experiments were performed at room temperature with BSA and different concentrations of BPA and NiBPA in the range 200–600 nm (λex. 280 nm). A slight red shift (40 percent, BPA; 65 percent, NiBPA; Figure 3) reduced the intensity of BSA fluorescence at 343 nm. The presence of the protein’s active site in a hydrophobic environment causes the redshift. […] The quenching mechanism can be set to either static or dynamic operation. Dynamic quenching occurs when the fluorophore and the quencher come into contact during the excited state’s transient existence, whereas static quenching is caused by the formation of a complex between the quencher and the fluorophore in the ground state. BSA (fluorophore) has a UV-vis absorption spectrum that can be used to investigate the type of quenching quickly and easily. […] The binding constants for BPA and NiBPA were calculated using Equation (1) and found to be 0.4 × 10^4 M^−1 and 0.82 × 10^4 M^−1, respectively (Table 1). […] Furthermore, the findings are in line with previous research on related compounds.
The Kq value is much higher than the 2 × 10^10 M^−1s^−1 maximum scatters collision quenching constant of quenchers with BSA (Kq = Ksv/τ0), where KSV is the Stern–Volmer constant and τ0 is the average lifetime of the BSA in the absence of the quencher (τ0 = 10 ns). This supports the idea of a static quenching mechanism. […] It is second order in [Q] and thus leads to upward curvy plots of I0/I versus [Q] at higher [Q].
The quenching constant (Kq) was calculated using the Stern–Volmer and Scatchard equation and plotted as I0/I vs. [Q] to better understand the quenching process (Figure 3). In addition, Scatchard Equation (2) was used to calculate the equilibrium binding constant:log[(I0 − I)/I] = log Kbin + n log [Q](2) where Kbin is the compound’s BSA binding constant and n is the number of binding sites. From the log (I0 − I)/I vs. log [Q] plot (Figure 5), the binding constant (Kbin) and the number of binding sites (n) have been calculated (Table 1). The estimated value of n (∼1) for BPA and NiBPA strongly supported the existence of a single binding site in BSA.

[11] = system: P. aeruginosa; assay: Antibacterial MIC/MBC, P. aeruginosa; format: cell-based; set-up: MIC: unit not given here; conditions: Gram-negative

## O.[Cl][Ni][Cl].c1ccc(CNCc2ccccn2)nc1 [NiBPA, [(BPA)NiCl2(H2O)]]
[1]
  binding constant (BSA): 8200 M⁻¹
[2]
  IC50: 75.0 ± 0.5 µg/mL
[3]
  MBC: 80.0 µg/mL
  MIC: 43.0
[4]; 1st step, 25 °C
  Ka1 (k1/k−1): 53.6 M⁻¹
[4]; 1st step, 25 °C, read-out: Kd1 (k−1/k1)
  Kd: 19 mM
[4]; 2nd step, 25 °C
  K2 (2nd step): 0.23 ± 0.01 M⁻¹ s⁻¹
  Ka2 (k2/k−2): 39 M⁻¹ and 39.0 M⁻¹
  k−2: 5.9 ± 0.5 10^−3s^−1
[4]; 25 °C
  k1 (1st step, second-order association constant): 19.3 ± 2.3 M⁻¹ s⁻¹
  k−1 (1st step, first-order dissociation constant): 0.36 ± 0.1 s⁻¹
[4]; overall
  Ka (overall binding): 2077 M⁻¹
[5]
  binding constant (ct-DNA): 52000 M⁻¹
[6]
  IC50: 120.0 ± 0.5 µg/mL
[7]
  MBC: 63.0 µg/mL
[8]
  MBC: 76.0 µg/mL
[9]; 1st step, 25 °C
  Ka1 (k1/k−1): 7.3 M⁻¹
[9]; 1st step, ΔGbind = RT·ln(Kd)
  ΔG1: -1.22 kcal/mol
[9]; 2nd step
  ΔG2: −8.3 kJmol^−1
[9]; 2nd step, 25 °C
  k−2: 620 ± 6 10^−3s^−1
[9]; 2nd step, 25 °C, irreversible step for BPA
  K2 (2nd step): 2.0 ± 0.2 M⁻¹ s⁻¹
[9]; 2nd step, 25 °C, listed as 1
  Ka2: 3.2 M⁻¹
[9]; 25 °C
  k1 (1st step, second-order association constant): 53.6 ± 9.0 M⁻¹ s⁻¹
  k−1 (1st step, first-order dissociation constant): 7.3 ± 0.3 s⁻¹
[9]; overall
  Ka (overall binding): 30.3 M⁻¹
  ΔG (overall reaction): −8.4 kJmol^−1
[9]; overall, read-out: Kd (overall binding)
  Kd: 34 mM
[9]; overall, read-out: Kd (overall reaction)
  Kd: 32.3 mM
[10]; BSA binding constant from Scatchard equation
  Kbin: 0.90 10^4 M^−1
[10]; Scatchard plot log (I0 − I)/I vs. log [Q]
  n (number of binding sites): 1.3
[10]
  KSV: 7000 M⁻¹
[10]; BSA fluorescence, λex 280 nm, room temperature
  KSV: 0.70 10^4 M^−1
[10]; quenching constant, Kq = Ksv/τ0, τ0 = 10 ns
  Kq: 0.70 10^12 M^−1s^−1
[10]; λex 280 nm, room temperature
  reduction of BSA fluorescence intensity at 343 nm: 65%
[11]
  MBC: 70.0 µg/mL
  MIC: 35.0
